Data as given in ChEMBL document CHEMBL1156103, “Ionic liquid mediated and promoted eco-friendly preparation of thiazolidinone and pyrimidine nucleoside-thiazolidinone hybrids and their antiparasitic activities” (Bioorg Med Chem Lett, 2009).

What was measured:
[1] = tested on: Trypanosoma brucei brucei; experiment: Antitrypanosomal activity against Trypanosoma brucei brucei GVR 35 trypomastigotes after 72 hrs by MTT assay; format: functional, organism-based; settings: GVR 35, 72 h
[2] = tested on: Leishmania donovani; experiment: Antileishmanial activity against Leishmania donovani LV9 promastigotes after 72 hrs by MTT assay; format: functional, organism-based; settings: LV9, 72 h

IC50 [1] [µM]	SMILES	IC50 [2] [µM]
> 100	CC(=O)OC[C@H]1O[C@@H](n2cc(C3SCC(=O)N3c3ccc(Cl)cc3)c(=O)[nH]c2=O)C[C@@H]1OC(C)=O (some centres undefined)	25
> 100	CC(=O)OC[C@H]1O[C@@H](n2cc(C3SCC(=O)N3c3ccccc3)c(=O)[nH]c2=O)C[C@@H]1OC(C)=O (some centres undefined)	50
> 100	CC(=O)OC[C@H]1O[C@@H](n2cc(C3SCC(=O)N3c3ccccn3)c(=O)[nH]c2=O)C[C@@H]1OC(C)=O (some centres undefined)	> 100
> 100	CC(=O)OC[C@H]1O[C@@H](n2cc(C3SCC(=O)N3c3ccc(C)cc3)c(=O)[nH]c2=O)C[C@@H]1OC(C)=O (some centres undefined)	100
> 100	CC(=O)OC[C@H]1O[C@@H](n2cc(C3SCC(=O)N3c3cccc([N+](=O)[O-])c3)c(=O)[nH]c2=O)C[C@@H]1OC(C)=O (some centres undefined)	> 100
> 100	CC(=O)OC[C@H]1O[C@@H](n2cc(C3SCC(=O)N3c3ccc(F)cc3)c(=O)[nH]c2=O)C[C@@H]1OC(C)=O (some centres undefined)	50
> 100	CC(=O)OC[C@H]1O[C@@H](n2cc(C3SCC(=O)N3c3cccc(Br)n3)c(=O)[nH]c2=O)C[C@@H]1OC(C)=O (some centres undefined)	50
